Test results published in patent US20090170949A1, “Method To Control Body Weight” (priority 2006, published 2009).

Key:
[1] = male and female dogs, diet with various concentrations of sucralose; cited from earlier work
[2] = test system: SGLT1; assay: SGLT1 protein expression (western blot of luminal membrane vesicles) in wild-type mice on low carbohydrate plus sucralose diet; type: in vivo, mouse; settings: 2 weeks
Description: (§1) Male CD-1 and C57BL/6 mice, six weeks old, from Charles River Laboratories were used. The α-gustducin knock out mouse was described by Wong et al. (1996); the T1R3 knock out mouse was described by Damak et al. 2003).
(§2) High and low carbohydrate diets were resp. TestDiet® 5810 and TestDiet® 5787-9. For the sucralose test, the low carbohydrate diet was supplemented with sucralose (1,6-dichloro-1,6-dideoxy-beta-D-fructofuranosyl-4-chloro-4-deoxy-alpha-galactopyranoside) at 2 mM.
(§3) Animals were killed by concussion followed by cervical dislocation. The entire small intestine was removed and flushed with ice-cold 0.9% NaCl, opened longitudinally, rinsed in saline and mucous removed by blotting. The small intestine was then divided into proximal, mid and distal sections and the mucosa removed by scraping. Mucosal scrapings were frozen immediately in liquid nitrogen and stored at −80° C. until use. […]
(§4) Second, groups of wild-type and T1R3 and α-gustducin KO mice were placed on each of three iso-caloric diets a) low carbohydrate, b) high carbohydrate, and c) low carbohydrate+artificial sweetener (sucralose), for two weeks. After this time the mice were killed and the small intestines were removed, divided into proximal, mid and distal regions, and SGLT1 expression, at protein and mRNA levels, were measured in each.

[3] = test system: SGLT1; assay: SGLT1 mRNA levels (real-time PCR) in small intestine of wild-type mice on low carbohydrate plus sucralose diet; type: in vivo, mouse; settings: proximal and mid intestinal regions, sucralose (2 mM) added to low carbohydrate diet, 2 weeks, qPCR
Description: as §1, §2, §3, §4

[4] = test system: SGLT1; assay: SGLT1 expression in α-gustducin knock-out mice on low carbohydrate plus sucralose diet; type: in vivo, mouse; settings: α-gustducin KO mice, 2 weeks
Description: as §1, §2, §3, §4

[5] = Body weight gain and food intake of mice on low carbohydrate diet with or without sucralose; type: in vivo, mice (C57BL/6); settings: C57BL/6 mice, low carbohydrate diet with 0.3% sucralose, ad libitum, 12 weeks
Source text: induction of weight increase in mice by the use of an artificial sweetener Two groups of mice (C57BL/6) were fed ad libitum with a low carbohydrate diet (1.9% remaining carbohydrate, Purina), with or without 0.3% sucralose (Tate and Lyle). Food consumption and body weight was followed for a period of 12 weeks.

[6] = test system: SGLT1; assay: SGLT1 expression in T1R3 knock-out mice on low carbohydrate plus sucralose diet; type: in vivo, mouse; settings: T1R3 KO mice, 2 weeks
Description: as §1, §2, §3, §4

[7] = Triglycerides in blood plasma of obese marmosets treated with coated lactisole pills; type: in vivo, common marmoset monkeys (Callithrix jacchus); set-up: Triglycerides in blood plasma: unit not given here
Description: 5 mm diameter coated pill were made, comprising 20 mg tablettose, 26.5 mg Avicell PH 102, 2.5 mg Crospovidone and 1 mg Mg-stearate for the placebo, and 35 mg sodium 2-(4-methoxyphenoxy)propionate (Endeavour speciality chemicals), 11.5 mg Avicel PH 102, 2.5 mg Crospovidone and 1 mg Mg-stearate for the Lactisole pills. Pills were coated in a fluidized bed (GCPG1, Glatt), at a spray rate of 4 g/min, atomic pressure 1.5 bar, inlet air temperature 36° C., product temperature 31° C. at maximal air velocity. The composition of the coating solution was 11.4% Eudragit® EPO(Röhm Pharma), 1.14% Sodium lauryl sulphate (α-pharma), 4% Mg-stearate (α-pharma), 1.72% stearic acid (α-pharma) and water ad 100%.
Adult male and female common marmoset monkeys (Callithrix jacchus) were from the breeding colony of the German Primate Center (DPZ), Göttingen, Germany. Animals were housed in pairs in air-conditioned facilities on a 12 hr/12: HR light/dark cycle.
Animals were fed two times a day: mash feeding, containing 15 g of test diet in the morning, and 60 g of test diet in the afternoon (value per animal). Each time before feeding, the animals received two pills (either placebo or lactisole) in nutrical gel.
Three groups of marmosets were compared: 11 obese animals treated with lactisole, 11 obese animals receiving placebo and 12 lean control animals receiving placebo. The experiment is carried out for 10 weeks, and bodyweight, glycated hemoglobin HbA1c, and glucose in blood plasma is measured. […]
Obese animals were treated for 7 weeks with lactisole (70 mg, two times a day, before feeding). Control obese and lean animals received placebo pills.

[8] = rats, high lactisole concentrations added to the diet; considered statistically insignificant; cited from earlier work
[9] = Effect of lactisole on body weight (applicant's general finding); type: in vivo; settings: also when encapsulated and/or coated to avoid contact with the taste receptor of the mouth

SMILES | body weight gain and final body weight [1] | SGLT1 protein expression [2] | increase of SGLT1 mRNA [3] | SGLT1 mRNA response [4] | SGLT1 protein response [4] | average increase in body weight gain versus control group [5] [%] | food intake higher than control group [5] [%] | SGLT1 mRNA response [6] | SGLT1 protein response [6] | Triglycerides in blood plasma ([7]; obese marmosets N = 11, high carb feeding week 0, week −4 with respect to lactisole treatment (before treatment)) | Triglycerides in blood plasma ([7]; obese marmosets N = 11, high carb feeding week 3, week −1 with respect to lactisole treatment (before treatment)) | Triglycerides in blood plasma ([7]; obese marmosets N = 11, high carb feeding week 5, week 1 of lactisole treatment, 70 mg two times a day) | Triglycerides in blood plasma ([7]; obese marmosets N = 11, high carb feeding week 7, week 3 of lactisole treatment, 70 mg two times a day) | Triglycerides in blood plasma ([7]; obese marmosets N = 11, high carb feeding week 9, week 5 of lactisole treatment, 70 mg two times a day) | Triglycerides in blood plasma ([7]; obese marmosets N = 11, high carb feeding week 11, week 7 of lactisole treatment, 70 mg two times a day) | serum triglyceride level, course in treated obese animals ([7]; obese marmosets, 7 weeks lactisole 70 mg two times a day before feeding) | body-weight gain [8] | effect on body weight [9]
OC[C@H]1O[C@H](O[C@]2(CCl)O[C@H](CCl)[C@@H](O)[C@@H]2O)[C@H](O)[C@@H](O)[C@H]1Cl [sucralose, 1,6-dichloro-1,6-dideoxy-beta-D-fructofuranosyl-4-chloro-4-deoxy-alpha-galactopyranoside] | gaining more rapidly body weight and reached a higher final body weight level | increased | 30-70% | no increase | no increase | 42 | 7.5 | no increase | no increase | – | – | – | – | – | – | – | – | –
COc1ccc(OC(C)C(=O)O)cc1 (stereo not drawn) [Lactisole, sodium 2-(4-methoxyphenoxy) propanoate] | – | – | – | – | – | – | – | – | – | 2.75 | 2.24 | 1.82 | 1.85 | 1.57 | 1.52 | decreasing to the level of the lean control | reduction in body-weight gain | body weight loss
